Test results reported in patent US8993622B2, “Antiviral compounds” (Eirium AB, priority 2010, dated 2015).
Read-outs that look alike come from different tables or passages of the source.

Columns and labels:
RCAd11pGFP vector = assay: Screening assay: GFP expression from RCAd11pGFP vector in K562 cells; format: cell-based; settings: Human adenovirus sp., K562, 24 h, read-out: 50% inhibitory concentration (IC50), inhibition of GFP expression
Description: The screening assay is based on GFP expression from the RCAd11pGFP vector in a K562 cell system. […] To be considered as a potential hit, the compound had to decrease the intensity of fluorescence by more than 80% and kill no more than 50% of the cells. […] None of the compounds selected for further study were autofluorescent.
To verify the hits and to exclude false positives, the compounds were serially diluted in 7 steps for dose-response analysis using the screening assay. […] Twenty-four compounds met these criteria. The distribution of fluorescence inhibition and cellular toxicity detected in the screening process of these 24 hits is summarized in FIG. 1. One of the most efficient and least toxic compounds was A02, 2-[[2-(benzoylamino)benzoyl]amino]-benzoic acid. This compound was evaluated further as a potential drug candidate.

Ad5 = assay: microbe, parasite or virus in culture; format: cell-based, human adenovirus
HSV-1 = assay: qPCR of herpes simplex 1 replication in GMK cells; format: cell-based, Herpes simplex virus 1; settings: 24 h
Procedure: Same procedure as for qPCR for adenovirus quantification was followed with the exception of a few steps. Namely, 7×10^4 green monkey kidney (GMK) cells were seeded in 24-well plate the day before infection. Seventy-five virus particles of HSV-1 (stock 1351-95 P13) were added per cell. After 24 h incubation with the compound A02 at 37° C. in 5% CO2, the cells were harvested and DNA was prepared from 200 μL of the total 500 μL well-volume to include the DNA of possible released HSV-1 particles. The primers used in the qPCR assay were; Rune 1 (sense—position 137680-137697 in HSV-1 genome) (5′-GGC CTG GCT ATC CGG AGA-3′—SEQ ID NO:6) and Rune 2 (antisense—position 137742-137726 in HSV-1 genome) (5′-GCG CAG AGA CAT CGC GA-3′—SEQ ID NO:7), the final concentration in the reaction mixture of the primers were 300 nM. As in the adenovirus quantification a FAM-TAMRA labeled probe was used; Rune 3 (5′-CAGCACACGACTTGGCGTTCTGTGT-3′—SEQ ID NO:8) to a final concentration of 175 nM in the reaction mixture.

Tn5 transponase = target: T1, Tn5 transponase (Escherichia coli, UniProt Q46731); settings: US 2006/0035245; cited from earlier work
T1 sequence (Q46731 1-476): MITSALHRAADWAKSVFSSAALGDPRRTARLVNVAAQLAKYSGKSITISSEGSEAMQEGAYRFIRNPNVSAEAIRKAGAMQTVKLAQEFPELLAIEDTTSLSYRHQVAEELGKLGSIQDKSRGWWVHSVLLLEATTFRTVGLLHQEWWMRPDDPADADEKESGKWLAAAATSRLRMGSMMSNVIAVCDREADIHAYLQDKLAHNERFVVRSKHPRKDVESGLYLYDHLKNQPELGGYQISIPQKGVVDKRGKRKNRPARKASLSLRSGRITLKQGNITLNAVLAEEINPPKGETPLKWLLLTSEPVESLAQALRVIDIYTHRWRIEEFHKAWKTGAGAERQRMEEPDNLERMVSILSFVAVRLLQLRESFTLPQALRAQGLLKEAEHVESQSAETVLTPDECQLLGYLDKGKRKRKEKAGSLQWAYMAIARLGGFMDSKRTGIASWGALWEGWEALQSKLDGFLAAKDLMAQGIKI

[1] = Human adenovirus sp., A549, read-out: % inhibition of DNA replication (SD)

O=C(Nc1ccccc1C(=O)Nc1ccccc1C(=O)O)c1ccccc1 [Compound A02, 2-[[2-(Benzoylamino)benzoyl]amino]-benzoic acid]
IC50 (RCAd11pGFP vector): 28.6 µM | effect on the replication of Ad5 (QPCR) (Ad5; A549 cells): significant inhibitory effect | selectivity index (SI=CC50/IC50) for Ad5 (Ad5; A549 cells): 54 | IC50 (Ad5; Human adenovirus sp., A549, 24 h, read-out: IC50 for Ad5 replication (QPCR)): 3.7 µM | inhibition at 5 µM (Ad5; [1]): 72% | inhibition at 15 µM (Ad5; [1]): 86% | EC50 (Ad5; unidentified adenovirus, A549): 3.7 µM | inhibition at 5 µM (Ad5; unidentified adenovirus, A549, read-out: % Inh. at 5 μM): 89 ± 5% | inhibition at 15 µM (Ad5; unidentified adenovirus, A549, read-out: % Inh. at 15 μM): 96 ± 1% | inhibitory effect on herpes simplex 1 replication (HSV-1): about the same as observed with the representatives of all the six human adenovirus species | inhibition of Tn5 transponase (Tn5 transponase): found to inhibit
